Data on nine molecules can be found in paper PMC8485799, “Synthesis and Antiprotozoal Profile of 3,4,5‐Trisubstituted Isoxazoles” (ChemistryOpen, 2021).

One series deals with macrophages (J774 A1). Put plainly: Cytotoxicity assay in mammalian cells (MTT), macrophages, 48 h. The class given is cell-based. The method in brief:
(§1)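 Cells pre-grown 24 h to confluence (L929 2.5×10^5, J774 A1 5×10^5 cells.mL^−1), then exposed to compound dilutions at 37 °C, 5 % CO2: L929 in DMEM/10 % FBS for 72 h, J774 A1 in RPMI‐1640/10 % FBS for 48 h. MTT (2 mg.mL^−1, 4 h), formazan read at […]; CC50 from viability versus untreated controls.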

The test system of series [1] is promastigote forms of Leishmania amazonensis (WHOM/BR/75/JOSEFA strain). Put plainly: Antiproliferative assay (XTT), promastigote forms, 72 h. The following applies: for IC50: promastigote form, 72 h, XTT, read-out: L. amazonensis IC50; for SIL-F, selectivity index (Fibroblast CC50/L. amazonensis IC50): fibroblast vs promastigote; for SIL-M, selectivity index (Macrophages CC50/L. amazonensis IC50): macrophages vs promastigote. The class given is cell-based. The procedure, abridged: (§2)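 Parasites at 1×10^6 mL^−1 with compound (DMSO stock diluted in medium): L. amazonensis promastigotes in Warren medium + 10% FBS at 25 °C for 72 h, T. cruzi epimastigotes in LIT medium + 10% FBS at 28 °C for 96 h. Viability by XTT/PMS for 4 h, absorbance at 450 nm. IC50 from % viable versus control.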

The test system of series [2] is epimastigote forms of Trypanosoma cruzi (Y strain). Put plainly: Antiproliferative assay (XTT), epimastigote forms, 96 h. The class given is cell-based. The following applies: for IC50: epimastigote form, 96 h, XTT, read-out: T. cruzi IC50; for SIT-F, selectivity index (Fibroblast CC50/T. cruzi IC50): fibroblast vs epimastigote; for SIT-M, selectivity index (Macrophages CC50/T. cruzi IC50): macrophages vs epimastigote. The method in brief: as §2

The next series concerns fibroblast line (L929). Put plainly: Cytotoxicity assay in mammalian cells (MTT), fibroblasts, 72 h. The class given is cell-based. The method in brief:
as §1

Series [3] in a line: Cytotoxicity assay in mammalian cells (MTT), macrophages, 48 h. The conditions noted are these: mouse, J774 A1 macrophages, pH 7.2; 50 % inhibition of macrophages growth, 48 h, MTT. The class given is cell-based. The procedure, abridged: as §1
Series [4] is described as follows: Cytotoxicity assay in mammalian cells (MTT), fibroblasts, 72 h. The following applies: mouse, L929 fibroblast cells, pH 7.2; 50 % inhibition of fibroblast growth, 72 h, MTT. The class given is cell-based. The procedure, abridged: as §1
Series [5] relates to both forms of L. amazonensis. The arrangement: method as in PMID 27597410. The following applies: cited from earlier work.

Molecules are shown by their SMILES. Like-named read-outs stand apart in the source and are kept apart here.

Take `CCOC(=O)c1noc(-c2ccc([N+](=O)[O-])cc2)c1CNc1ccccc1` [2 aa, 3‐Carboxyethyl‐4‐(phenyl)aminomethyl‐5‐(4‐nitrophenyl)isoxazole]: the CC50 came to 202 ± 6.5 µM with macrophages (J774 A1) and 270 ± 8.9 µM in the series with fibroblast line (L929). Also, the IC50 in series [1] was found to be 34.8 ± 1.7 µM; in series [2] it was 54.2 ± 3 µM.

As for `COc1ccc(NCc2c(C(=O)N/N=C/c3ccccn3)noc2-c2ccc(Cl)cc2)cc1` [5 dc], the melting point was in the range of 210.4 to 212.4 °C. For the same molecule, the CC50 at 48 h in series [3] was 98.6 ± 2.3 µM. Besides, in series [1] (Leishmania amazonensis), the IC50 was found to be 17.4 ± 2 µM. Besides, in series [1], the “SIL-F, selectivity index (Fibroblast CC50/L. amazonensis IC50)” value (shortened to “SIL-F, selectivity index”) came to 6.17 and the “SIL-M, selectivity index (Macrophages CC50/L. amazonensis IC50)” value (“SIL-M, selectivity index” for short) is given as 5.67. Also, in series [2] (Trypanosoma cruzi), the IC50 amounted to 17.9 ± 0.7 µM. For the same molecule, in series [2], the “SIT-F, selectivity index (Fibroblast CC50/T. cruzi IC50)” value (shortened to “SIT-F, selectivity index”) came to 6.00 and the “SIT-M, selectivity index (Macrophages CC50/T. cruzi IC50)” value (shortened to “SIT-M, selectivity index”) is 5.51. The CC50 at 72 h in series [4] stood at 107 ± 2.2 µM.

`O=C(N/N=C/c1ccc(-c2cccs2)s1)c1noc(-c2ccc([N+](=O)[O-])cc2)c1CNc1ccccc1` [6 aa, 3‐[(2E)‐N'‐(2,2'‐bithienyl‐5‐methylene)hydrazinecarbonyl]‐4‐(phenyl)aminomethyl‐5‐(4‐nitrophenyl)isoxazole] showed a melting point of 232.5 to 233.9 °C. Besides, in series [3], the CC50 at 48 h was found to be 210 ± 9.6 µM. Moreover, in series [1] (Leishmania amazonensis), the IC50 is 32.9 ± 0.9 µM. Also, in series [1], the “SIL-F, selectivity index” value is recorded as 8.74 and the “SIL-M, selectivity index” value was determined as 6.37. Further, in series [2] (Trypanosoma cruzi), the IC50 amounted to 38.4 ± 2.1 µM. Further, in series [2], the “SIT-F, selectivity index” value is on record as 7.48 and the “SIT-M, selectivity index” value came out at 5.46. The molecule further yielded a CC50 at 72 h in series [4] of 287 ± 7.3 µM.

As for `O=C(N/N=C/c1ccc(-c2cccs2)s1)c1noc(-c2ccccc2)c1CNc1ccc(Cl)cc1` [6 bb], the melting point lay in the range of 211.1 to 213.9 °C. Moreover, the CC50 at 48 h in series [3] was found to be 188 ± 7.4 µM. Also, the IC50 in series [1] (Leishmania amazonensis) was determined as 18.4 ± 1.2 µM. Besides, in series [1], the “SIL-F, selectivity index” value was 12.31 and the “SIL-M, selectivity index” value stood at 10.22. Besides, the IC50 in series [2] (Trypanosoma cruzi) stood at 19 ± 0.7 µM. Also, in series [2], the “SIT-F, selectivity index” value is reported as 11.92 and the “SIT-M, selectivity index” value came out at 9.90. Also, in series [4], the midpoint of cytotoxicity, the CC50 at 72 h, lay at 226 ± 8.7 µM.

Consider `COc1ccc(NCc2c(C(=O)N/N=C/c3ccc(-c4cccs4)s3)noc2-c2ccccc2)cc1` [6 bc], for which the melting point is 165.5 to 167 °C. In series [3], this molecule returned a CC50 at 48 h of 170 ± 3.3 µM. Further, the IC50 in series [1] (Leishmania amazonensis) worked out at 17.2 ± 3.1 µM. Moreover, in series [1], the “SIL-F, selectivity index” value is recorded as 11.5 and the “SIL-M, selectivity index” value came out at 9.91. Moreover, the IC50 in series [2] (Trypanosoma cruzi) worked out at 18.1 ± 2.4 µM. Moreover, in series [2], the “SIT-F, selectivity index” value worked out at 10.9 and the “SIT-M, selectivity index” value was 9.42. The molecule further had a CC50 at 72 h in series [4] of 198 ± 5.9 µM.

Turning to `O=C(N/N=C/c1ccc(-c2cccs2)s1)c1noc(-c2ccc(Cl)cc2)c1CNc1ccccc1` [6 da], the melting point lay within 208.4 to 209.9 °C. In series [3], the CC50 at 48 h was 312 ± 4.3 µM. In addition, the IC50 in series [1] (Leishmania amazonensis) is 28 ± 1.3 µM. Further, in series [1], the “SIL-F, selectivity index” value was found to be 12.39 and the “SIL-M, selectivity index” value amounted to 11.14. Moreover, in series [2] (Trypanosoma cruzi), the IC50 is 27.2 ± 2.5 µM. Further, in series [2], the “SIT-F, selectivity index” value came to 12.76 and the “SIT-M, selectivity index” value amounted to 11.47. In series [4], this molecule came in with a CC50 at 72 h of 347 ± 8.4 µM.

Consider `COc1ccc(NCc2c(C(=O)N/N=C/c3ccc(-c4cccs4)s3)noc2-c2ccc(Cl)cc2)cc1` [6 dc], for which the melting point lay within 199.9 to 202.7 °C. The CC50 at 48 h in series [3] turned out to be 309 ± 8 µM. Moreover, the IC50 in series [1] (Leishmania amazonensis) was found to be 32.7 ± 3 µM. Besides, in series [1], the “SIL-F, selectivity index” value is reported as 12.16 and the “SIL-M, selectivity index” value worked out at 9.45. The IC50 in series [2] (Trypanosoma cruzi) was found to be 30.5 ± 1.6 µM. In addition, in series [2], the “SIT-F, selectivity index” value was 13.0 and the “SIT-M, selectivity index” value was 10.1. In series [4], this molecule came in with a CC50 at 72 h of 398 ± 7.8 µM.

Take `O=C(N/N=C/c1cccs1)c1nn(-c2ccccc2)c(=O)c2c1cnn2-c1ccccc1` [IV]: the “Activity against both forms of L. amazonensis” value in series [5] was “good activity values”.

As to `O=C(N/N=C/c1ccc(-c2cccs2)s1)c1nn(-c2ccccc2)c(=O)c2c1cnn2-c1ccccc1` [V], the “Activity against both forms of L. amazonensis” value in series [5] was “good activity values”.
